The subject of data set [1] is HFD-fed mice. Put plainly: insulin tolerance test in HFD-fed mice. It is filed as in vivo. Particulars: 60 mg/kg daily oral gavage for 6 days; male mice fed HFD 5 weeks; insulin 1 U/kg. The protocol: (§1) (FIG. 3A) Glucose tolerance test in 14 h fasted male mice fed a HFD for 5 weeks. […] At 1 day after drug treatment, glucose tolerance test was performed. Mean±SEM. (FIG. 3B) Insulin tolerance test of mice treated as described in FIG. 3A. Mean±SEM. […] The liver sections were stained with anti-IR (red) and DAPI (blue). Scale bars, 5 μm. (FIG. 3D) Quantification of the ratios of PM and IC IR signals of the livers in C (mean±SD; *p<0.0001). […] Cell lysates were blotted with the indicated antibodies.
(§2) The IR staining at the PM in liver sections from mice fed with HFD was weak, and insulin stimulation further reduced it and caused IR endocytosis (FIGS. 3C and D).
(§3) All animals were maintained in a specific antigen-free barrier facility with 12 h light/dark cycles (6 AM on and 6 PM off). Mice were fed a standard rodent chow (2016 Teklad Global 16% protein rodent diet, Harlan Laboratories). […] For glucose tolerance test, mice were fasted for 14 h, and their blood glucose levels (T=0) were measured with tail bleeding using a glucometer (AlphaTRAK®). […] Blood glucose levels were measured at 15, 30, 60, and 120 min after glucose injection. For insulin tolerance test, mice fasted for 4 h were injected intraperitoneally with recombinant human insulin (Eli Lilly) at 1 U/kg body weight, and their blood glucose levels were measured at 0, 15, 30 and 60 min after injection.

In data set [2] the test system is HepG2 cells expressing IR-GFP mutants. Put plainly: cellular localization of IR-GFP mutants in HepG2 cells after inhibitors. The format is cell-based. The following applies: starved 14 h, inhibitors 4 h, no insulin. From the text:
FIGS. 4A-E. Dysregulation of IR endocytosis as a potential contributing factor to human insulin resistance syndromes. (FIG. 4A) Representative images of liver specimens from human non-diabetes and diabetes patients stained with DAPI (blue) and anti-IR (red) and anti-ZO-1 (green) antibodies. Scale bars, 40 μm. (FIG. 4B) Quantification of the percentage of cells with positive IR PM signals in liver specimens in FIG. 4A (mean±SD; *p<0.0001). (FIG. 4C) HepG2 cells stably expressing IR-GFP R1020Q, V1054M, A1075D, V1086E, or I1143T were serum starved and stained with anti-GFP and anti-RAB7 antibodies. Scale bar, 5 μm. (FIG. 4D) Quantification of the ratios of PM and IC IR-GFP signals of cells in FIG. 4C (mean±SD; *p<0.0001). (FIG. 4E) Targeting feedback regulation of IR endocytosis for diabetes treatment. Left panel depicts the feedback regulation of IR endocytosis by ERK1/2 and SHP2 during unperturbed insulin signaling.
FIGS. 9A-D. Characterization of IR mutations found in human patients. (FIG. 9A) HepG2 cells expressing IR-GFP Class I mutants (P997T, V1012M, A1055V, K1095E, R1119Q, H1157R, R1191Q, Y1361C, or R1378Q) were starved for 14 h, treated with the indicated inhibitors for 4 h, and stained with anti-GFP (IR; green) and DAPI (blue). Scale bar, 5 m. (FIG. 9B) HepG2 cells expressing IR-GFP Class II mutants (R1020Q, V1054M, A1075D, V1086E, or I1143T) were analyzed as described in FIG. 9A. (FIG. 9C) HepG2 cells expressing IR-GFP Class III mutants (A1162E or W1220L) were analyzed as described in A. (FIG. 9D) HepG2 cells expressing IR-GFP WT, R1020Q, or V1054M were serum starved for 14 h and treated with DMSO or 80 μM Dynasore for 4 h. Cell lysates were blotted with the indicated antibodies.
Mutations of IR are known to cause inherited severe insulin resistance syndromes, but the mechanisms by which these mutations affect IR function have not been systematically explored. HepG2 cell lines were generated which stably expressed IR mutants fused to GFP, and the subcellular localization of these IR-GFP proteins was examined (FIGS. 9A-C and Table 1).
There were three distinct classes of IR mutants based on their subcellular localization in the unstimulated state. Class I mutants localized to the PM. […] Thus, certain IR mutations found in human insulin resistance syndromes perturbs IR kinase regulation and causes premature IR endocytosis.
Cellular localization of IR mutants was examined after inhibiting the SHP2 or MAPK pathways (FIGS. 4C-D, and FIGS. 9A-C).
Indirect immunofluorescence microscopy was performed on cells grown on coverslips and fixed in cold methanol at −20° C. for 10 min. The fixed cells were incubated with PBS for 30 min and 3% BSA in 0.1% PBST for 1 h, and then treated with diluted antibodies in 0.3% BSA in 0.1% PBST at 4° C. overnight. After being washed, cells were incubated with fluorescent secondary antibodies and mounted on microscope slides in ProLong Gold Antifade reagent with DAPI (Invitrogen). Images of fixed cells were acquired as a series of 0.4 m stacks with a DeltaVision® system (Applied Precision®, Issaquah, Wash.). Raw images were deconvolved using the iterative algorithm implemented in the softWoRx® software (Applied Precision®, Issaquash, Wash.). The central section of a 0.4 μm z-stack containing 3 contiguous focal planes was used for quantification. The cell edges were defined with Image J. The whole cell signal intensity (WC) and intracellular signal intensity (IC) were measured. The plasma membrane signal intensity (PM) was calculated by subtracting IC from WC. Identical exposure times and magnifications were used for all comparative analyses.

Data set [3] in a line: body weight of HFD-fed mice. The format is in vivo. Particulars: 60 mg/kg daily oral gavage; 7 days post administration. How it is done:
FIGS. 8A-B. Effects of the SHP2 inhibitor on body weight and insulin signaling in HFD-WT mice. […] Mean±SD. (FIG. 8B) Quantification of the relative band intensities in FIG. 3E. Mean±SD; n=3 independent experiments.
as §2
as §3, with “Laboratories). For inducing insulin resistance, C57BL/6J (Stock No. 000664, Jackson laboratory) were fed a high-fat (60%) diet (OpenSource Diets, Cat. No. D12492). For in vivo pharmacological assays, 6-8-weeks-old male mice were fed high-fat diet (HFD) for 5 weeks. Two days before drug administration, mice were switched to normal chow.” for “Laboratories).”

For data set [4], the system named is HFD-fed mice. Put plainly: glucose tolerance test in HFD-fed mice. The format is in vivo. Particulars: 60 mg/kg daily oral gavage for 6 days; male mice fed HFD 5 weeks; 14 h fasted. How it is done:
as §1, §2, §3

Consider `CC1(N)CCN(c2cnc(-c3cccc(Cl)c3Cl)c(N)n2)CC1` [SHP099], for which, in the data set with HFD-fed mice [1], the insulin sensitivity result was “markedly increased”. Also, in data set [2], the “PM levels of Class I and III IR mutants” value is “not those of Class I and III IR mutants”. The “PM levels of Class II IR mutants” value in data set [2] (R1020Q, V1054M, A1075D, V1086E, I1143T) is reported as “significantly enhanced the PM levels of Class II IR mutants”. Also, in data set [3], the body weight entry was “did not change the body weight”. The glucose tolerance result in the data set on HFD-fed mice [4] is on record as “markedly increased glucose tolerance”.

For the origin of these results see patent US11426422B2, “SHP2 inhibitors and methods of use thereof” (Research Development Foundation, priority 2018, dated 2022).
